We go through 41 compounds from patent US20180251431A1 (VERTEX PHARMACEUTICALS INCORPORATED, priority 2016, published 2018).

The structures appear in SMILES notation. A value given as a limit tells only on which side of the number the result lay.

One assay relates to HEK293 cells. The assay is described as follows: HEK293 VLCFA-LPC IC50 determination (13C-labeled C26:0 LPC by UHPLC/MS). The assay is classed as cell-based, human. The conditions noted are these: Homo sapiens, HEK293, 48 h, average of one or more replicates; 13C-labeled C26:0 LPC, 48 hours; read-out: Average HEK293 IC50. The gist of the method:
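Suspension HEK293 cells (final 0.5 million/mL after mixing with equal volume) incubated 48 hours with compound plus 13C-acetate (1.0 mg/mL in added media), shaking at 37° C. Lipids extracted with hexane/isopropanol or methanol, C13:0 LPC standard. UHPLC/MS of 13C-labeled C26:0 LPC (638.500/104.100 m/z); IC50 by four-parameter fit.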
One may read the IC50 as the concentration needed to halve the response being measured. As to `O=C(Nc1ccn(-c2ccccc2)n1)C1(c2ccccc2)CC1CO` (centres unmarked) [Compound 444, 2-(hydroxymethyl)-1-phenyl-N-(1-phenyl-1H-pyrazol-3-yl)cyclopropane-1-carboxamide], the IC50 came to 260 nM.
Still for that read-out and setting: the value for `O=C(Nc1ccn(-c2ccc(C(F)(F)F)nc2)n1)C1(c2ccccc2F)CC1` [Compound 315, 1-(2-fluorophenyl)-N-(1-(6-(trifluoromethyl)pyridin-3-yl)-1H-pyrazol-3-yl)cyclopropane-1-carboxamide] was over 5000 nM.
Still for that read-out and setting: the value for `O=C(Nc1ccn(-c2cnc(C(F)(F)F)nc2)n1)C1(c2ccccc2F)CC1` [Compound 381, 1-(2-fluorophenyl)-N-[1-[2-(trifluoromethyl)pyrimidin-5-yl]pyrazol-3-yl]cyclopropanecarboxamide] was over 5000 nM; that for `Cc1cn(-c2ccccc2)nc1NC(=O)C1(c2cccc(F)c2)CCC1` [Compound 372, 1-(3-fluorophenyl)-N-(4-methyl-1-phenyl-pyrazol-3-yl)cyclobutanecarboxamide] was 3700 nM; that for `O=C(Nc1ccn(-c2ncco2)n1)C1(c2ccccc2F)CC1` [Compound 375, 1-(2-fluorophenyl)-N-(1-oxazol-2-ylpyrazol-3-yl)cyclopropanecarboxamide] was 500 nM.
`O=C(Nc1ccn(-c2ccnc(F)c2)n1)C1(c2ccccc2)CC1(Cl)Cl` (single isomer, unassigned) [Compound 370]: the IC50 was 170 nM.
The same measure, in the same setting: the result for `O=C(Nc1ccn(-c2ccncc2Cl)n1)C1(c2ccccc2F)CC1` [Compound 333, N-[1-(3-chloro-4-pyridyl)pyrazol-3-yl]-1-(2-fluorophenyl)cyclopropanecarboxamide] reads 950 nM.
Regarding `O=C(Nc1ccn(-c2ccncc2C(F)(F)F)n1)C1(c2ccccc2F)CC1` [Compound 328, 1-(2-fluorophenyl)-N-[1-[3-(trifluoromethyl)-4-pyridyl]pyrazol-3-yl]cyclopropanecarboxamide], the IC50 was over 5000 nM.

The same assay, now with this note: Homo sapiens, HEK293, HEK293 cells; average of one or more replicates; read-out: Average HEK293 IC50.
For `O=C(Nc1ccn(-c2ccncc2F)n1)C1(c2ccccc2F)CC1` [Compound 137, 1-(2-fluorophenyl)-N-[1-(3-fluoro-4-pyridyl)pyrazol-3-yl]cyclopropanecarboxamide], the IC50 was determined as 120 nM.
Take `COc1cccc(C2(C(=O)Nc3ccn(-c4ccnc(F)c4)n3)CC2)c1` [Compound 250, N-[1-(2-fluoro-4-pyridyl)pyrazol-3-yl]-1-(3-methoxyphenyl)cyclopropanecarboxamide]: the IC50 came out at 170 nM.
Same read-out and setting: the result for `CC(C)(C(=O)Nc1ccn(-c2ccccc2)n1)c1ccccc1` [Compound 30, 2-methyl-2-phenyl-N-(1-phenyl-1H-pyrazol-3-yl)propanamide] reads 320 nM; that for `O=C(Nc1ccn(-c2ccccc2)n1)C1(c2ccccc2)CC1(Cl)Cl` (centres unmarked) [Compound 141, 2,2-dichloro-1-phenyl-N-(1-phenylpyrazol-3-yl)cyclopropanecarboxamide], 340 nM.
Take `O=C(Nc1ccn(-c2ccc(F)cc2)n1)C1(c2cnccn2)CC1` [Compound 494, N-[1-(4-fluorophenyl)pyrazol-3-yl]-1-pyrazin-2-yl-cyclopropanecarboxamide]: the IC50 was over 5000 nM.
As for `O=C(Nc1ccn(-c2ccc(F)c(Cl)c2)n1)C1(c2ccccc2F)CC1` [Compound 198, N-[1-(3-chloro-4-fluoro-phenyl)pyrazol-3-yl]-1-(2-fluorophenyl)cyclopropanecarboxamide], the IC50 worked out at 720 nM.
On to `O=C(Nc1ccn(-c2ncccc2F)n1)C1(c2ccccc2)CC1` [Compound 82, N-[1-(3-fluoro-2-pyridyl)pyrazol-3-yl]-1-phenyl-cyclopropanecarboxamide], for which the IC50 was 190 nM.
Turning to `O=C(Cc1ccc(F)c(F)c1F)Nc1ccn(-c2ccccc2)n1` [Compound 74, N-(1-phenylpyrazol-3-yl)-2-(2,3,4-trifluorophenyl)acetamide], the IC50 is over 5000 nM.
Consider `O=C(Nc1ccn(-c2ccccc2)n1)C1(c2ccccc2)CC(F)(F)C1` [Compound 177, 3,3-difluoro-1-phenyl-N-(1-phenylpyrazol-3-yl)cyclobutanecarboxamide], for which the IC50 amounted to 790 nM.
Regarding `Cc1cnc(C2(C(=O)Nc3ccn(-c4cncc(F)c4)n3)CC2)c(F)c1` [Compound 497, 1-(3-fluoro-5-methyl-2-pyridyl)-N-[1-(5-fluoro-3-pyridyl)pyrazol-3-yl]cyclopropanecarboxamide], the IC50 stood at 2100 nM.
Consider `O=C(Nc1ccn(-c2ccccc2)n1)C1(c2ccc(Cl)cc2F)CC1` [Compound 263, 1-(4-chloro-2-fluoro-phenyl)-N-(1-phenylpyrazol-3-yl)cyclopropanecarboxamide], for which the IC50 was over 5000 nM.
Regarding `[2H]C([2H])([2H])Oc1ccc(-n2ccc(NC(=O)C3(c4ccccc4F)CC3)n2)cn1` [Compound 440, 1-(2-fluorophenyl)-N-[1-[6-(trideuteriomethoxy)-3-pyridyl]pyrazol-3-yl]cyclopropanecarboxamide], the IC50 was determined as 52 nM.
`O=C(Nc1ccn(-c2cccc(Cl)c2)n1)C1(c2ccccc2)CC1(F)F` (racemic) [Compound 421, N-(1-(3-chlorophenyl)-1H-pyrazol-3-yl)-2,2-difluoro-1-phenylcyclopropane-1-carboxamide]: the IC50 was found to be 470 nM.
The same measure, in the same setting: the result for `O=C(Cc1ccccc1)Nc1ccn(-c2ccc(F)c(Cl)c2)n1` [Compound 197, N-[1-(3-chloro-4-fluoro-phenyl)pyrazol-3-yl]-2-phenyl-acetamide] reads over 5000 nM.
On the same count and under the same terms, the result for `Cc1cc(-n2ccc(NC(=O)C3(c4ccccc4)CC3)n2)ccn1` [Compound 112, N-[1-(2-methyl-4-pyridyl)pyrazol-3-yl]-1-phenyl-cyclopropanecarboxamide] reads 910 nM; that for `O=C(Nc1ccn(-c2ccc(C(F)(F)F)cc2)n1)C1(c2ncccc2F)CC1` [Compound 457, 1-(3-fluoro-2-pyridyl)-N-[1-[4-(trifluoromethyl)phenyl]pyrazol-3-yl]cyclopropanecarboxamide], over 5000 nM.
As for `Cc1cc(-n2ccc(NC(=O)C3(c4ccccc4F)CC3)n2)ccn1` [Compound 113, 1-(2-fluorophenyl)-N-[1-(2-methyl-4-pyridyl)pyrazol-3-yl]cyclopropanecarboxamide], the IC50 is 1600 nM.
As to `Cc1cc(-n2ccc(NC(=O)Cc3ccccc3)n2)ccn1` [Compound 109, N-[1-(2-methyl-4-pyridyl)pyrazol-3-yl]-2-phenyl-acetamide], the IC50 is over 10000 nM.
In the case of `COc1ncc(-n2ccc(NC(=O)C3(c4ccccc4F)CC3)n2)s1` [Compound 408, 1-(2-fluorophenyl)-N-[1-(2-methoxythiazol-5-yl)pyrazol-3-yl]cyclopropanecarboxamide], the IC50 worked out at 1000 nM.
In the case of `Cn1cc(-n2ccc(NC(=O)C3(c4ccccc4F)CC3)n2)nn1` [Compound 400, 1-(2-fluorophenyl)-N-(1-(1-methyl-1H-1,2,3-triazol-4-yl)-1H-pyrazol-3-yl)cyclopropane-1-carboxamide], the IC50 is over 5000 nM.
Consider `O=C(Cc1ccccc1F)Nc1ccn(-c2cnccn2)n1` [Compound 216, 2-(2-fluorophenyl)-N-(1-pyrazin-2-ylpyrazol-3-yl)acetamide], for which the IC50 is over 5000 nM.
The same measure, in the same setting: the value for `O=C(Cc1ccccc1F)Nc1ccn(-c2cccc(Cl)c2)n1` [Compound 130, N-[1-(3-chlorophenyl)pyrazol-3-yl]-2-(2-fluorophenyl)acetamide] was 1500 nM.
As for `O=C(Cc1ncccn1)Nc1ccn(-c2ccnc(F)c2)n1` [Compound 221, N-[1-(2-fluoro-4-pyridyl)pyrazol-3-yl]-2-pyrimidin-2-yl-acetamide], the IC50 was over 5000 nM.
Consider `O=C(Cc1ccccc1)Nc1ccn(-c2cc(F)ncc2F)n1` [Compound 114, N-[1-(2,5-difluoro-4-pyridyl)pyrazol-3-yl]-2-phenyl-acetamide], for which the IC50 amounted to 1200 nM.
Regarding `O=C(Nc1ccn(-c2ccnc(F)c2)n1)C1(c2ccc(F)cc2)CC1` [Compound 255, 1-(4-fluorophenyl)-N-[1-(2-fluoro-4-pyridyl)pyrazol-3-yl]cyclopropanecarboxamide], the IC50 is 100 nM.
As to `O=C(Cc1ccc(Cl)cc1)Nc1ccn(-c2ccccc2)n1` [Compound 6, 2-(4-chlorophenyl)-N-(1-phenylpyrazol-3-yl)acetamide], the IC50 is over 5000 nM.
Regarding `O=C(Nc1ccn(-c2ccc(F)cc2)n1)C1(c2cccs2)CC1` [Compound 481, N-[1-(4-fluorophenyl)pyrazol-3-yl]-1-(2-thienyl)cyclopropanecarboxamide], the IC50 was determined as 160 nM.
For the compound `O=C(Cc1ccc(F)cc1)Nc1ccn(-c2cncnc2)n1` [Compound 97, 2-(4-fluorophenyl)-N-(1-pyrimidin-5-ylpyrazol-3-yl)acetamide], the IC50 was over 10000 nM.
Take `O=C(Cc1ccccc1)Nc1ccn(-c2ccccc2)n1` [Compound 41, 2-phenyl-N-(1-phenylpyrazol-3-yl)acetamide]: the IC50 turned out to be 73 nM.
As for `O=C(Nc1ccn(-c2ccnc(F)c2)n1)C1(c2ncccc2F)CC1` [Compound 277, 1-(3-f1uoro-2-pyridyl)-N-[1-(2-fluoro-4-pyridyl)pyrazol-3-yl]cyclopropanecarboxamide], the IC50 was 120 nM.
Same read-out and setting: the result for `O=C(Cc1ccccc1)Nc1ccn(-c2ccccn2)n1` [Compound 86, 2-phenyl-N-[1-(2-pyridyl)pyrazol-3-yl]acetamide] reads 680 nM; that for `Cc1ccn(CC(=O)Nc2ccn(-c3ccccc3)n2)n1` [Compound 291, 2-(3-methylpyrazol-1-yl)-N-(1-phenylpyrazol-3-yl)acetamide], over 5000 nM.
On the same count and under the same terms, the value for `CCCC(C(=O)Nc1ccn(-c2ccccc2)n1)c1ccccc1` (centres unmarked) [Compound 176, 2-phenyl-N-(1-phenylpyrazol-3-yl)pentanamide] was 870 nM.
